Measurements from patent US11987648B2, “Cyclohexapeptides as selective somatostatin SST5 receptor agonists” (Heptares Therapeutics Limited, priority 2018, dated 2024).
Where two headings read alike, the source gives them in different places. *1 amine or outer side, *2 acyl side, *3 side chain or, on linkers, in order; H or OH if unused. Where a SMILES comes first, the peptide text is derived from it. Side-chain parts run from the residue outwards. [ ]: non-standard residue; d: D form. The star is where a group is joined. Ala(piperidin-4-yl) = O=C([C@H](CC1CCN([*:3])CC1)N[*:1])[*:2]; dTrp(5-OMe) = COc1ccc2[nH]cc(C[C@@H](N)C(=O)O)c2c1; dTrp(4-Me) = Cc1cccc2[nH]cc(C[C@@H](N)C(=O)O)c12; dTrp(5-Me) = Cc1ccc2[nH]cc(C[C@@H](N)C(=O)O)c2c1; Ala(piperazin-1-yl) = N[C@@H](CN1CCNCC1)C(=O)O; Phe(3-Br) = N[C@@H](Cc1cccc(Br)c1)C(=O)O; Phe(3-Cl) = N[C@@H](Cc1cccc(Cl)c1)C(=O)O; Phe(3-OMe) = COc1cccc(C[C@H](N)C(=O)O)c1; Phe(4-Cl) = N[C@@H](Cc1ccc(Cl)cc1)C(=O)O; Ethylenediamine = C(CN[*:2])N[*:1]; d(hPhe) = N[C@H](CCc1ccccc1)C(=O)O; Hyp = O=C(O)[C@@H]1C[C@@H](O)CN1; hPhe = N[C@@H](CCc1ccccc1)C(=O)O; 3Pal = N[C@@H](Cc1cccnc1)C(=O)O; Tic = O=C(O)[C@@H]1Cc2ccccc2CN1; Benzyl(4-Cl) = Clc1ccc(C*)cc1; Phg = N[C@H](C(=O)O)c1ccccc1; CO = O=C([*:1])[*:2]; Bn = c1ccc(C*)cc1

What was measured:
SST2 = SST2 (Homo sapiens, UniProt P30874); test: Hit Hunter cAMP XS+ assay, SST2 activation via Gi (reduction of forskolin-stimulated cAMP); assay type: cell-based; details: for Emax: read-out: SST2 (EMax)
Description: (§1) A Hit Hunter® cAMP XS+ assay was used to monitor activation of the SST2 and SST5 via the Gi G protein. Cells were pre-stimulated with forskolin to elicit a cAMP response and the potency and efficacy of somatostatin agonists to reduce cAMP was measured. Briefly cells (10,000 cells/well) were incubated (37° C.; 30 min) with compound ([…]) in media (2:1 HBSS/11 mM Hepes: cAMP XS+Ab reagent) in the presence of EC80 forskolin ([…] and 15 μM SST5). Signal was detected through incubation with 20 μL cAMP XS+ED/CL lysis cocktail ([…]; RT) followed by incubation with […] cAMP XS+EA reagent (180 min; RT). Microplates were read with a PerkinElmer Envision™ instrument for chemiluminescent signal detection.

SST5 = SST5 (Homo sapiens, UniProt P35346); test: Hit Hunter cAMP XS+ assay, SST5 activation via Gi (reduction of forskolin-stimulated cAMP); assay type: cell-based; details: for Emax: read-out: SST5 (EMax); for SST5/2 Selectivity: selectivity for SST5 over SST2
Description: as §1

[1] = reduction of forskolin-stimulated cAMP, 4-parameter logistic fit, read-out: SST2 pEC50 (converted)
[2] = reduction of forskolin-stimulated cAMP, 4-parameter logistic fit, read-out: SST5 pEC50 (converted)

Sequence of SST2 (P30874 whole entry): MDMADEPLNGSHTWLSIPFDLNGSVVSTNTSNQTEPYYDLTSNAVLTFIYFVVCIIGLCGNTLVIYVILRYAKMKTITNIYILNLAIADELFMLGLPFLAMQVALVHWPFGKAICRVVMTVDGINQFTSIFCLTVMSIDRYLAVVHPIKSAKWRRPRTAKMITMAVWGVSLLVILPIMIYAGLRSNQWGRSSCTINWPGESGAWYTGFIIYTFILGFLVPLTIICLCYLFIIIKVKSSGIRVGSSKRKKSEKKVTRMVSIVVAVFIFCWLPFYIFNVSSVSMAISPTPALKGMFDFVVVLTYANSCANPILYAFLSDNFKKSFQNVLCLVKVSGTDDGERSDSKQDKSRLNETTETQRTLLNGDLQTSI
Sequence of SST5 (P35346 whole entry): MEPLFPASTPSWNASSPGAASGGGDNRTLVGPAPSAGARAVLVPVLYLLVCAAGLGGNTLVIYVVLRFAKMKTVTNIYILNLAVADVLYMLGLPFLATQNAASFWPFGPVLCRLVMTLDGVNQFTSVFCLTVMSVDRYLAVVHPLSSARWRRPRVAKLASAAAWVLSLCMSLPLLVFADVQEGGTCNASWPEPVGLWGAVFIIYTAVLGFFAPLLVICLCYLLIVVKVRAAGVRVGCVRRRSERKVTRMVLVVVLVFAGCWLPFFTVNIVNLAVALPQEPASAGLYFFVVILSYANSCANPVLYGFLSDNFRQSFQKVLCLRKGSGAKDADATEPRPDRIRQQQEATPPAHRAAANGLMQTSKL

Compound	Emax (SST2)	Emax (SST5)	SST5/2 Selectivity (SST5)	EC50 (SST2; [1])	EC50 (SST5; [2])	EC50 (SST2)	EC50 (SST5)
NCCNC(=O)O[C@@H]1C[C@H]2C(=O)N[C@@H](c3ccccc3)C(=O)N[C@H](Cc3c[nH]c4ccccc34)C(=O)N[C@@H](CC3CCNCC3)C(=O)N[C@@H](Cc3ccc(OCc4ccccc4)cc3)C(=O)N[C@@H](Cc3ccccc3)C(=O)N2C1 [Example 1] (cyclo(F[Hyp]([CO-Ethylenediamine])[Phg][dW][Ala(piperidin-4-yl)]Y(Bn)))	62%	98.6%	130.7			3160 nM	25.1 nM
NCCNC(=O)O[C@@H]1C[C@H]2C(=O)N[C@@H](Cc3ccccc3)C(=O)N[C@H](Cc3c[nH]c4ccccc34)C(=O)N[C@@H](CC3CCNCC3)C(=O)N[C@@H](Cc3ccc(OCc4ccccc4)cc3)C(=O)N[C@@H](Cc3ccccc3)C(=O)N2C1 [Example 2] (cyclo(F[Hyp]([CO-Ethylenediamine])F[dW][Ala(piperidin-4-yl)]Y(Bn)))	96.4%	105%	21.9			398 nM	20 nM
NCCNC(=O)O[C@@H]1C[C@H]2C(=O)N[C@@H](CCc3ccccc3)C(=O)N[C@H](Cc3c[nH]c4ccccc34)C(=O)N[C@@H](CC3CCNCC3)C(=O)N[C@@H](Cc3ccc(OCc4ccccc4)cc3)C(=O)N[C@@H](Cc3cccnc3)C(=O)N2C1 [Example 3] (cyclo([3Pal][Hyp]([CO-Ethylenediamine])[hPhe][dW][Ala(piperidin-4-yl)]Y(Bn)))	98.4%	100%	236.7			200 nM	0.794 nM
Cc1cccc2[nH]cc(C[C@H]3NC(=O)[C@H](c4ccccc4)NC(=O)[C@@H]4C[C@@H](OC(=O)NCCN)CN4C(=O)[C@H](Cc4ccccc4)NC(=O)[C@H](Cc4ccc(OCc5ccccc5)cc4)NC(=O)[C@H](CC4CCNCC4)NC3=O)c12 [Example 4] (cyclo(F[Hyp]([CO-Ethylenediamine])[Phg][dTrp(4-Me)][Ala(piperidin-4-yl)]Y(Bn)))	103%	105%	23.6			251 nM	12.6 nM
COc1ccc2[nH]cc(C[C@H]3NC(=O)[C@H](c4ccccc4)NC(=O)[C@@H]4C[C@@H](OC(=O)NCCN)CN4C(=O)[C@H](Cc4ccccc4)NC(=O)[C@H](Cc4ccc(OCc5ccccc5)cc4)NC(=O)[C@H](CC4CCNCC4)NC3=O)c2c1 [Example 5] (cyclo(F[Hyp]([CO-Ethylenediamine])[Phg][dTrp(5-OMe)][Ala(piperidin-4-yl)]Y(Bn)))	97.6%	98.7%	33.8	316 nM	10 nM		
NCCNC(=O)O[C@@H]1C[C@H]2C(=O)N[C@@H](c3ccccc3)C(=O)N[C@H](Cc3c[nH]c4ccccc34)C(=O)N[C@@H](CC3CCNCC3)C(=O)N[C@@H](Cc3ccc(OCc4ccc(Cl)cc4)cc3)C(=O)N[C@@H](Cc3ccccc3)C(=O)N2C1 [Example 6] (cyclo(F[Hyp]([CO-Ethylenediamine])[Phg][dW][Ala(piperidin-4-yl)]Y(Benzyl(4-Cl))))	97.9%	97.9%	41.9	50.1 nM	1.26 nM		
NCCNC(=O)O[C@@H]1C[C@H]2C(=O)N[C@@H](c3ccccc3)C(=O)N[C@H](Cc3c[nH]c4ccccc34)C(=O)N[C@@H](CC3CCNCC3)C(=O)N[C@@H](Cc3ccc(OCc4ccccc4)cc3)C(=O)N[C@@H](Cc3cccc(Cl)c3)C(=O)N2C1 [Example 7] (cyclo([Hyp]([CO-Ethylenediamine])[Phg][dW][Ala(piperidin-4-yl)]Y(Bn)[Phe(3-Cl)]))	99.2%	102%	19.3	10 nM	0.501 nM		
NCCNC(=O)O[C@@H]1C[C@H]2C(=O)N[C@@H](c3ccccc3)C(=O)N[C@H](Cc3c[nH]c4ccccc34)C(=O)N[C@@H](CC3CCNCC3)C(=O)N[C@@H](Cc3ccc(OCc4ccccc4)cc3)C(=O)N[C@@H](Cc3ccc(Cl)cc3)C(=O)N2C1 [Example 8] (cyclo([Hyp]([CO-Ethylenediamine])[Phg][dW][Ala(piperidin-4-yl)]Y(Bn)[Phe(4-Cl)]))	101%	102%	22.7	31.6 nM	1.26 nM		
COc1ccc(C[C@@H]2NC(=O)[C@H](Cc3ccc(OCc4ccccc4)cc3)NC(=O)[C@H](CC3CCNCC3)NC(=O)[C@@H](Cc3c[nH]c4ccccc34)NC(=O)[C@H](c3ccccc3)NC(=O)[C@@H]3C[C@@H](OC(=O)NCCN)CN3C2=O)cc1 [Example 9] (cyclo([Hyp]([CO-Ethylenediamine])[Phg][dW][Ala(piperidin-4-yl)]Y(Bn)Y(Me)))	102%	106%	23.3	50.1 nM	2.51 nM		
COc1cccc(C[C@@H]2NC(=O)[C@H](Cc3ccc(OCc4ccccc4)cc3)NC(=O)[C@H](CC3CCNCC3)NC(=O)[C@@H](Cc3c[nH]c4ccccc34)NC(=O)[C@H](c3ccccc3)NC(=O)[C@@H]3C[C@@H](OC(=O)NCCN)CN3C2=O)c1 [Example 12] (cyclo([Hyp]([CO-Ethylenediamine])[Phg][dW][Ala(piperidin-4-yl)]Y(Bn)[Phe(3-OMe)]))	97.6%	98.1%	26.1	20 nM	0.794 nM		
Cc1ccc2[nH]cc(C[C@H]3NC(=O)[C@H](c4ccccc4)NC(=O)[C@@H]4C[C@@H](OC(=O)NCCN)CN4C(=O)[C@H](Cc4ccccc4)NC(=O)[C@H](Cc4ccc(OCc5ccccc5)cc4)NC(=O)[C@H](CC4CCNCC4)NC3=O)c2c1 [Example 13] (cyclo(F[Hyp]([CO-Ethylenediamine])[Phg][dTrp(5-Me)][Ala(piperidin-4-yl)]Y(Bn)))	97.6%	98.7%	87.2	200 nM	2.51 nM		
C[C@@H](O)[C@@H]1NC(=O)[C@H](CCCCN)NC(=O)[C@@H](Cc2c[nH]c3ccccc23)NC(=O)[C@H](Cc2ccccc2)NC(=O)[C@@H](NC(=O)[C@H](N)Cc2ccccc2)CSSC[C@@H](C(=O)N[C@H](CO)[C@@H](C)O)NC1=O [Octreotide]	98.5%						

More lines, main results first:

Emax (SST2)	Emax (SST5)	SST5/2 Selectivity (SST5)	EC50 (SST2; [1])	EC50 (SST5; [2])	Compound	EC50 (SST2)	EC50 (SST5)
101%	98%	38.9	20 nM	0.501 nM	NCCNC(=O)O[C@@H]1C[C@H]2C(=O)N[C@@H](c3ccccc3)C(=O)N[C@H](Cc3c[nH]c4ccccc34)C(=O)N[C@@H](CC3CCNCC3)C(=O)N[C@@H](Cc3ccc(OCc4ccccc4)cc3)C(=O)N[C@@H](Cc3cccc(Br)c3)C(=O)N2C1 [Example 10] (cyclo([Hyp]([CO-Ethylenediamine])[Phg][dW][Ala(piperidin-4-yl)]Y(Bn)[Phe(3-Br)]))		
98%	99.4%	48.2	200 nM	3.98 nM	NCCNC(=O)O[C@@H]1C[C@H]2C(=O)N[C@@H](c3ccccc3)C(=O)N[C@H](Cc3c[nH]c4ccccc34)C(=O)N[C@@H](CC3CCNCC3)C(=O)N[C@@H](Cc3ccc(OCc4ccccc4)cc3)C(=O)N[C@@H](Cc3cccnc3)C(=O)N2C1 [Example 11] (cyclo([3Pal][Hyp]([CO-Ethylenediamine])[Phg][dW][Ala(piperidin-4-yl)]Y(Bn)))		
99.6%	96.7%	1876.8	158 nM	0.0794 nM	NCCNC(=O)O[C@@H]1C[C@H]2C(=O)N[C@@H](CCc3ccccc3)C(=O)N[C@H](Cc3c[nH]c4ccccc34)C(=O)N[C@@H](CN3CCNCC3)C(=O)N[C@@H](Cc3ccc(OCc4ccccc4)cc3)C(=O)N[C@@H](Cc3cccnc3)C(=O)N2C1 [Example 14] (cyclo([3Pal][Hyp]([CO-Ethylenediamine])[hPhe][dW][Ala(piperazin-1-yl)]Y(Bn)))		
55.5%	101%	531.3	> 10000 nM	20 nM	NCCNC(=O)O[C@@H]1C[C@H]2C(=O)N[C@H](CCc3ccccc3)C(=O)N[C@H](Cc3c[nH]c4ccccc34)C(=O)N[C@@H](CC3CCNCC3)C(=O)N[C@@H](Cc3ccc(OCc4ccccc4)cc3)C(=O)N[C@@H](Cc3cccnc3)C(=O)N2C1 [Example 15] (cyclo([3Pal][Hyp]([CO-Ethylenediamine])[d(hPhe)][dW][Ala(piperidin-4-yl)]Y(Bn)))		
79.5%	100%	2729.5	> 10000 nM	3.98 nM	NCCNC(=O)O[C@@H]1C[C@H]2C(=O)N[C@H](CCc3ccccc3)C(=O)N[C@H](Cc3c[nH]c4ccccc34)C(=O)N[C@@H](CN3CCNCC3)C(=O)N[C@@H](Cc3ccc(OCc4ccccc4)cc3)C(=O)N[C@@H](Cc3cccnc3)C(=O)N2C1 [Example 16] (cyclo([3Pal][Hyp]([CO-Ethylenediamine])[d(hPhe)][dW][Ala(piperazin-1-yl)]Y(Bn)))		
97.3%	104%	789.4	398 nM	0.501 nM	NCCNC(=O)O[C@@H]1C[C@H]2C(=O)N[C@@H](CCc3ccccc3)C(=O)N[C@H](Cc3c[nH]c4ccccc34)C(=O)N[C@@H](CC3CCNCC3)C(=O)N[C@@H](Cc3ccc(OCc4ccccc4)cc3)C(=O)N3Cc4ccccc4C[C@H]3C(=O)N2C1 [Example 17] (cyclo([Hyp]([CO-Ethylenediamine])[hPhe][dW][Ala(piperidin-4-yl)]Y(Bn)[Tic]))		
